Values quoted from earlier work in patent US4100185A, “Cyclohexanone 5,6-benzo analogues of prostaglandin E” (Miles Laboratories, Inc., priority 1977, dated 1978).
Entries after “also recorded” stand apart in the source; their conditions may differ. Read-outs that look alike come from different tables or passages of the source.

How the values were obtained:
[1] = tested on: gastric secretion; conditions: dogs
[2] = tested on: gastric secretion; conditions: man
[3] = tested on: growth hormone; conditions: rats
[4] = tested on: adrenal glands; conditions: hypophysectimized rats
[5] = tested on: adrenergic nervie endings; conditions: guinea pig
[6] = tested on: motor pathways in the central nervous system
[7] = tested on: thyroid; conditions: mice
[8] = tested on: ovarian progesterone secretion; conditions: sheep
[9] = tested on: tracheal smooth muscle; conditions: in vitro
[10] = tested on: blood platelets; conditions: in vitro
[11] = tested on: female reproductive system; conditions: in vivo
[12] = variety of mammals

Row | Compound | effect on gastric secretion [1] | effect on gastric secretion [2] | effect on growth hormone [3] | effect on steroidogenesis in the adrenal glands [4] | effect on transmitter release from adrenergic nerve endings [5] | effect on transmission in motor pathways [6] | effect on thyroid activity [7] | effect on ovarian progesterone secretion [8] | effect on tracheal smooth muscle [9] | effect on thrombogenesis [10] | effect on fertility, gestation, labor [11] | luteolytic effect [12]
1 | CCCCC[C@H](O)/C=C/[C@H]1C=CC(=O)[C@@H]1CCCCCCC(=O)O [PGA1] | inhibit gastric secretion | exhibits similar activity in man | increased synthesis of that hormone |  |  |  |  |  |  |  |  | 
2 | CCCCC[C@H](O)/C=C/[C@H]1[C@H](O)CC(=O)[C@@H]1CCCCCCC(=O)O [PGE1, prostaglandin E1] | inhibit gastric secretion |  | increase release of growth hormone | stimulate steriodogenesis in the adrenal glands | inhibit transmitter release from adrenergic nervie endings | retards | increase thyroid activity | inhibit ovarian progesterone secretion | relax | inhibits thrombogenesis in vitro |  | 
3 | CCCCC[C@H](O)/C=C/[C@H]1[C@H](O)CC(=O)[C@@H]1C/C=C\CCCC(=O)O [PGE2] | inhibit gastric secretion |  | increase release of growth hormone | stimulate steriodogenesis in the adrenal glands | inhibit transmitter release from adrenergic nervie endings |  | increase thyroid activity |  | relax |  | exerts potent oxytocic effects in inducing labor | 
4 | CCCCC[C@H](O)/C=C/[C@@H]1[C@@H](CCCCCCC(=O)O)[C@@H](O)C[C@H]1O [PGF1α] |  |  |  | stimulate steriodogenesis in the adrenal glands |  |  | increase thyroid activity | inhibit ovarian progesterone secretion |  |  |  | act as luteolytic factors
5 | CCCCC[C@H](O)/C=C/[C@@H]1[C@@H](CCCCCCC(=O)O)[C@H](O)C[C@H]1O [PGF1β] |  |  |  |  |  |  | increase thyroid activity |  |  |  |  | 
6 | CCCCC[C@H](O)/C=C/[C@@H]1[C@@H](C/C=C\CCCC(=O)O)[C@@H](O)C[C@H]1O [PGF2α] |  |  |  |  |  | facilitates transmission in motor pathways in the central nervous system |  |  | contracts the smooth muscle |  | has contragestational effects; also recorded: induces spontaneous abortions in early pregnancy | 
